The supplement of paper PMC10307832

How the values were obtained:
Assay in all cases: relative viability (nuclei count vs DMSO), 5 days (fraction); higher = more cells survive
LCLC-97TM1 = tested on: LCLC-97TM1
Summary of the method: (§1)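 Five library-drug doses in √10 steps were combined with a fixed anchor-drug dose, or a single drug was given alone, by pin tool to lung cancer cell lines in 1536-well plates the day after seeding. Nuclei were stained and counted after 5 days. Relative viability is the nuclei count in treated wells over that in vehicle wells, taken as the median of duplicate plates.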

NCI-H661 = tested on: NCI-H661
Summary of the method: as §1

NCI-H650 = tested on: NCI-H650
Summary of the method: as §1

H3255 = tested on: H3255
Summary of the method: as §1

201T = tested on: 201T
Summary of the method: as §1

PC-14 = tested on: PC-14
Summary of the method: as §1

NCI-H1666 = tested on: NCI-H1666
Summary of the method: as §1

NCI-H520 = tested on: NCI-H520
Summary of the method: as §1

NCI-H1915 = tested on: NCI-H1915
Summary of the method: as §1

EPLC-272H = tested on: EPLC-272H
Summary of the method: as §1

RERF-LC-KJ = tested on: RERF-LC-KJ
Summary of the method: as §1

NCI-H23 = tested on: NCI-H23
Summary of the method: as §1

NCI-H2405 = tested on: NCI-H2405
Summary of the method: as §1

COR-L 105 = tested on: COR-L 105
Summary of the method: as §1

NCI-H647 = tested on: NCI-H647
Summary of the method: as §1

NCI-H322M = tested on: NCI-H322M
Summary of the method: as §1

NCI-H2087 = tested on: NCI-H2087
Summary of the method: as §1

HCC-78 = tested on: HCC-78
Summary of the method: as §1

HCC-827 = tested on: HCC-827
Summary of the method: as §1

NCI-H2347 = tested on: NCI-H2347
Summary of the method: as §1

ChaGo-K-1 = tested on: ChaGo-K-1
Summary of the method: as §1

NCI-H2126 = tested on: NCI-H2126
Summary of the method: as §1

LC-2-ad = tested on: LC-2-ad
Summary of the method: as §1

For `O=C(O)c1ccc(-c2c[nH]c3ncc(-c4ccccc4)cc23)cc1C1CCCC1` + CC(=O)Nc1cccc(-n2c(=O)n(C3CC3)c(=O)c3c(Nc4ccc(I)cc4F)n(C)c(=O)c(C)c32)c1 [Trametinib] (partner 0.02 µM), the relative viability (LCLC-97TM1; first compound 0.04 µM) was 0.202, the relative viability (LCLC-97TM1; first compound 0.1265 µM) was 0.204 and the relative viability (LCLC-97TM1; first compound 0.4 µM) was 0.173. The relative viability (LCLC-97TM1; first compound 1.265 µM) was 0.207, the relative viability (NCI-H661; first compound 0.04 µM) was 0.585 and the relative viability (NCI-H661; first compound 0.1265 µM) was 0.628. The relative viability (NCI-H661; first compound 0.4 µM) was 0.585, the relative viability (NCI-H661; first compound 1.265 µM) was 0.59 and the relative viability (NCI-H650; first compound 0.04 µM) was 0.935. It also gave a relative viability (NCI-H650; first compound 0.1265 µM) of 0.943, a relative viability (NCI-H650; first compound 0.4 µM) of 0.879 and a relative viability (NCI-H650; first compound 1.265 µM) of 0.579. The relative viability (H3255; first compound 0.04 µM) was 0.587, the relative viability (H3255; first compound 0.1265 µM) was 0.689 and the relative viability (H3255; first compound 0.4 µM) was 0.584. It also gave a relative viability (H3255; first compound 1.265 µM) of 0.625, a relative viability (201T; first compound 0.04 µM) of 0.703 and a relative viability (201T; first compound 0.1265 µM) of 0.673. It also gave a relative viability (201T; first compound 0.4 µM) of 0.741, a relative viability (201T; first compound 1.265 µM) of 0.738 and a relative viability (PC-14; first compound 0.04 µM) of 0.714. The relative viability (PC-14; first compound 0.1265 µM) was 0.75, the relative viability (PC-14; first compound 0.4 µM) was 0.703 and the relative viability (PC-14; first compound 1.265 µM) was 0.688. It also gave a relative viability (NCI-H1666; first compound 0.04 µM) of 0.916, a relative viability (NCI-H1666; first compound 0.1265 µM) of 0.809 and a relative viability (NCI-H1666; first compound 0.4 µM) of 0.84. For the same compound, the relative viability (NCI-H1666; first compound 1.265 µM) was 0.598, the relative viability (NCI-H520; first compound 0.04 µM) was 0.673 and the relative viability (NCI-H520; first compound 0.1265 µM) was 0.775. It also gave a relative viability (NCI-H520; first compound 0.4 µM) of 0.672, a relative viability (NCI-H520; first compound 1.265 µM) of 0.437 and a relative viability (NCI-H1915; first compound 0.04 µM) of 0.293. For the same compound, the relative viability (NCI-H1915; first compound 0.1265 µM) was 0.313, the relative viability (NCI-H1915; first compound 0.4 µM) was 0.287 and the relative viability (NCI-H1915; first compound 1.265 µM) was 0.289. The relative viability (EPLC-272H; first compound 0.04 µM) was 0.307, the relative viability (EPLC-272H; first compound 0.1265 µM) was 0.27 and the relative viability (EPLC-272H; first compound 0.4 µM) was 0.283. For the same compound, the relative viability (EPLC-272H; first compound 1.265 µM) was 0.276, the relative viability (RERF-LC-KJ; first compound 0.04 µM) was 0.916 and the relative viability (RERF-LC-KJ; first compound 0.1265 µM) was 0.908. The relative viability (RERF-LC-KJ; first compound 0.4 µM) was 0.814, the relative viability (RERF-LC-KJ; first compound 1.265 µM) was 0.657 and the relative viability (NCI-H23; first compound 0.04 µM) was 0.375. It also gave a relative viability (NCI-H23; first compound 0.1265 µM) of 0.397, a relative viability (NCI-H23; first compound 0.4 µM) of 0.373 and a relative viability (NCI-H23; first compound 1.265 µM) of 0.258. For the same compound, the relative viability (NCI-H2405; first compound 0.04 µM) was 0.64, the relative viability (NCI-H2405; first compound 0.1265 µM) was 0.651 and the relative viability (NCI-H2405; first compound 0.4 µM) was 0.627. For the same compound, the relative viability (NCI-H2405; first compound 1.265 µM) was 0.587, the relative viability (COR-L 105; first compound 0.04 µM) was 0.402 and the relative viability (COR-L 105; first compound 0.1265 µM) was 0.456. It also gave a relative viability (COR-L 105; first compound 0.4 µM) of 0.46, a relative viability (COR-L 105; first compound 1.265 µM) of 0.506 and a relative viability (NCI-H647; first compound 0.04 µM) of 0.432. It also gave a relative viability (NCI-H647; first compound 0.1265 µM) of 0.477, a relative viability (NCI-H647; first compound 0.4 µM) of 0.478 and a relative viability (NCI-H647; first compound 1.265 µM) of 0.389. The relative viability (NCI-H322M; first compound 0.04 µM) was 0.482, the relative viability (NCI-H322M; first compound 0.1265 µM) was 0.633 and the relative viability (NCI-H322M; first compound 0.4 µM) was 0.524. The relative viability (NCI-H322M; first compound 1.265 µM) was 0.493, the relative viability (NCI-H2087; first compound 0.04 µM) was 0.204 and the relative viability (NCI-H2087; first compound 0.1265 µM) was 0.209. The relative viability (NCI-H2087; first compound 0.4 µM) was 0.179, the relative viability (NCI-H2087; first compound 1.265 µM) was 0.205 and the relative viability (HCC-78; first compound 0.1265 µM) was 0.937. It also gave a relative viability (HCC-78; first compound 0.4 µM) of 0.945, a relative viability (HCC-78; first compound 1.265 µM) of 0.829 and a relative viability (HCC-827; first compound 0.04 µM) of 0.574. It also gave a relative viability (HCC-827; first compound 0.1265 µM) of 0.575, a relative viability (HCC-827; first compound 0.4 µM) of 0.487 and a relative viability (HCC-827; first compound 1.265 µM) of 0.362. The relative viability (NCI-H2347; first compound 0.04 µM) was 0.267, the relative viability (NCI-H2347; first compound 0.1265 µM) was 0.286 and the relative viability (NCI-H2347; first compound 0.4 µM) was 0.311. For the same compound, the relative viability (NCI-H2347; first compound 1.265 µM) was 0.26, the relative viability (ChaGo-K-1; first compound 0.04 µM) was 1.15 and the relative viability (ChaGo-K-1; first compound 0.1265 µM) was 0.895. The relative viability (ChaGo-K-1; first compound 0.4 µM) was 0.89, the relative viability (ChaGo-K-1; first compound 1.265 µM) was 0.857 and the relative viability (NCI-H2126; first compound 0.04 µM) was 0.597. The relative viability (NCI-H2126; first compound 0.1265 µM) was 0.585, the relative viability (NCI-H2126; first compound 0.4 µM) was 0.562 and the relative viability (NCI-H2126; first compound 1.265 µM) was 0.55. It also gave a relative viability (LC-2-ad; first compound 0.04 µM) of 0.876, a relative viability (LC-2-ad; first compound 0.1265 µM) of 0.921 and a relative viability (LC-2-ad; first compound 0.4 µM) of 0.897. It also gave a relative viability (LC-2-ad; first compound 1.265 µM) of 0.769.
